Data taken from patent publication US20180312539A1, “METHODS FOR PREPARING HIGH THROUGHPUT PEPTIDOMIMETICS, ORALLY BIOAVAILABLE DRUGS AND COMPOSITIONS CONTAINING SAME” (University of Southern California, priority 2011, published 2018).

Key:
chymotrypsin = target: T1, chymotrypsin (Bos taurus, UniProt P00766); experiment: Protease resistance experiment, chymotrypsin digest; assay type: in vitro ADME
T1 construct: purchased Sigma
Description: Immobilized chymotrypsin and proteinase K purchased from Sigma.
Protease resistance enhancement was then tested.
Towards that end, three peptides were synthesized. […] The effects were dramatic and surprising.

Human serum digests = assay type: in vitro ADME; settings: reconstituted human serum, 37° C
Description: (§1) Delipidated/lyophilized human serum was purchased from Thermo Scientific and reconstituted as per manufacturer's instructions. 250 nmoles of peptide in 50 μLs of sodium phosphate buffer (pH=8.0) with 10% DMSO was added to 1 mL of reconstituted serum and incubated at 37° C. 100 μL aliquots were taken at various time points and quenched in 300 μLs of acetonitrile. Samples were spun down and decanted to remove precipitate followed by dilution in water to 1.5 mLs. Samples were then analyzed by HPLC as described in the protease resistance experiment.
as §1, with “μL” for “μLs”, “mLs.” for “mLs. Samples were then analyzed by HPLC as described in the protease resistance experiment.”
The human serum and human microsome stability of the Gαi1 binding SUPR peptide ([…] (SEQ ID NO: 7)) were compared to the peptides ability to bind to Her-2. Beginning with the human serum analysis, peptides were digested with 95% human serum at 37° C. Analysis was performed by HPLC. […] Therefore, intact peptide is only completely unmodified peptide. Digestions of SUPR, HMP, and PMP are show have lives very similar to SUPR. Digestion of PMP2 is in progress. Without being bound by theory, Applicants theorize that the fitting for HMP may have produced an artificially low half-life.

[1] = design: species or system C57BL6 mice; settings: mouse, in vivo, po, 10 mg/kg
Description: The following peptides were synthesized for oral administration: […](FAM) (SEQ ID NO: 14), […](FAM)DK(Palmitoleic acid) (SEQ ID NO: 15), and […](FAM) (SEQ ID NO: 16), wherein FAM is a lysine derivative containing fluorescein. All peptides were cyclized from the side chain to lysine to the N-terminus as previously described. Anesthetized C57BL6 mice had peptide administered at a dose of 10 mg/kg by oral gavage. After administration, mice were removed from isoflurane. At various time points, blood samples were taken by orbital bleeding as previously described. Peaks were normalized to a 15 minute time point from mice that had peptide administered by IV injection.
The following peptides were synthesized for oral administration: […](FAM) (SEQ ID NO: 14), […](FAM) (SEQ ID NO: 16), […](FAM)DK(biotin) (SEQ ID NO: 38), and […](FAM)DK(Palmitoleic acid) (SEQ ID NO: 15). All peptides were cyclized from the side chain to lysine to the N-terminus as previously described in Millward, S. W. et al. (2007) ACS Chem. Biol. 2:625. Anesthetized C57BL6 mice had peptide administered at a dose of 10 mgs/Kg by oral gavage. After administration, mice were removed from isoflurane. At various time points, blood samples were taken by orbital bleeding as previously described. Peaks were normalized to a 20 minute time point from mice that had peptide administered by IV injection. Area under the curve was analyzed by Graphpad 5.0.
In addition to accessing intracellular targets in cell culture, deriving a simple modification that would facilitate oral bioavailability of peptidic ligands would be greatly beneficial for therapeutic development. Intestinal absorption of both fatty acids and biotin is nearly 100% efficient. Zempleni, J. and Mock, D. M. (1999) The American Journal of Clinical Nutrition 69:504. […] Applicants synthesized a protease resistant peptide with the sequence […]-mod (designated SUPR peptide) (SEQ ID NO: 50), where A is N-methyl alanine, the peptide is cyclized from lysine to the N-terminus, and K(mod) is lysine with a modified sidechain including either biotin or palmitoleic acid. Palmitoleic acid is a monounsaturated fatty acid chosen for its ability to bind human serum albumin, and its low melting point allowing for more favorable solubility of conjugated peptides as compared to […] fatty acid conjugates. This peptide was administered to mice at a dose of 10 mg/kg by oral gavage. At various time points, blood was taken from the mice by orbital bleeding. After processing, fluorescence was quantified and compared to the maximum signal obtained by IV injection of peptide at the same dose.

## CSCC[C@@H]1NC(=O)CCCC(=O)NCCCC[C@@H](C(N)=O)NC(=O)[C@H](CO)NC(=O)[C@H](Cc2c[nH]c3ccccc23)NC(=O)[C@H](CCC(N)=O)NC(=O)[C@H](C)N(C)C(=O)[C@H](Cc2ccc(O)cc2)NC(=O)[C@H](CCC(=O)O)NC(=O)[C@H](Cc2ccc(O)cc2)NC(=O)[C@H](C)N(C)C(=O)[C@H](Cc2ccc(O)cc2)NC(=O)[C@H](Cc2ccccc2)NC1=O [cycSUPR]
chymotrypsin; compared to CycGIBP
  fold more resistant to chymotrypsin: ~200 fold
chymotrypsin; five theoretical digest sites
  digest sites found from chymotrypsin: two
Human serum digests
  half-life: 160 h
[1]
  oral uptake efficiency: did not show any detectable oral uptake
